Data reported in PubChem BioAssay (NCI).
Several values for one entry are separate records, joined by “and”; a condition that tells them apart may be missing. Identical values can stand only once.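 Tested at 5 concentrations; 48 h exposure; 96-well plates; endpoints linearly interpolated, else capped at highest concentration. At the GI50, growth is halved. TGI: concentration producing complete growth inhibition.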

Experiments:
Assay in all cases: NCI tumour cell line growth inhibition, 48 h
[1] = system: HL-60(TB) leukemia
[2] = system: SNB-75 CNS
[3] = system: EKVX NSCLC
[4] = system: HOP-92 NSCLC
[5] = system: HOP-62 NSCLC
[6] = system: SK-MEL-5 melanoma
[7] = system: 786-0 renal
[8] = system: A549 NSCLC
[9] = system: UACC-62 melanoma
[10] = system: M14 melanoma

Row | Compound | GI50 [1] | TGI [1] | GI50 [2] | TGI [2] | GI50 [3] | TGI [3] | GI50 [4] | TGI [4] | GI50 [5] | TGI [5] | GI50 [6] | TGI [6] | GI50 [7] | TGI [7] | GI50 [8] | TGI [8] | GI50 [9] | TGI [9] | GI50 [10] | TGI [10]
1 | Cc1cc(I)cc(CN(C)CCCN2CCCCCCC2)c1O | 2.26 µM | 7.97 µM | 15.4 µM | 30.2 µM | 16 µM | 37.6 µM | 11.6 µM | 29.8 µM | 16.4 µM | 32.2 µM | 6.94 µM | 19.4 µM | 12.7 µM | 26.3 µM | 20.1 µM | 45.5 µM | 6 µM | 18 µM | 15.5 µM | 33.2 µM
2 | CCCCC(C(=O)C(=O)NC1C2CC3CC(C2)CC1C3)C(=O)C(C)C (stereo not given) |  | > 100 µM |  | > 100 µM |  | > 100 µM |  | > 100 µM |  | > 100 µM |  | > 100 µM |  | > 100 µM |  | > 100 µM |  | > 100 µM |  | > 100 µM
3 | COc1ccc(-n2cc(-c3cc(OC)c(OC)c(OC)c3)c(C(=O)C(F)(F)F)c2C)cc1 | 37.3 µM | > 100 µM | 13.8 µM | > 100 µM | 13.9 µM | > 100 µM | 2.39 µM | 21.5 µM | > 100 µM | > 100 µM | 7.33 µM | > 100 µM | > 100 µM | > 100 µM | 28 µM | > 100 µM | 15.6 µM | > 100 µM | > 100 µM | > 100 µM
4 | CCCCCCCCCCCCOC1C(C(COC2OC(C3COC(C)(C)O3)C3OC(C)(C)OC23)NC(=O)Nc2ccc(C(=O)O)cc2)OC2OC(C)(C)OC21 (stereo not given) | 2.12 µM | 5.45 µM | 2.47 µM | 10.8 µM | 2.69 µM | 10.8 µM | 2.55 µM | 8.04 µM | 3.07 µM | 10.4 µM | 1.75 µM | 3.4 µM | 2.24 µM | 5.49 µM | 3.34 µM | 10.9 µM | 1.8 µM | 3.56 µM | 2.45 µM | 6.71 µM
5 | CNC(=O)N(C)N=NCCCl |  | > 100 µM |  | > 100 µM |  | > 100 µM |  | > 100 µM |  | > 100 µM |  | > 100 µM |  | > 100 µM |  | > 100 µM |  | > 100 µM |  | > 100 µM
6 | Cn1nc(N)c2cc([C@@H]3Nc4ccc5[nH]ncc5c4[C@H]4C5CCC(C5)[C@@H]34)ccc21 (stereo not given in full) | 0.381 µM | 6.46 µM | 0.152 µM | 3.27 µM | 0.732 µM | 67 µM | 1.51 µM | 17.9 µM | 0.603 µM | 25.5 µM | 0.363 µM | 12.7 µM | 0.586 µM | 18.1 µM | 0.699 µM | > 100 µM | 0.425 µM | 17.7 µM | 0.372 µM | 9.98 µM
7 | O=S1(=O)C[C@H](O)[C@H](O)CS1 |  | > 100 µM |  | > 100 µM |  | > 100 µM |  | > 100 µM |  | > 100 µM |  | > 100 µM |  | > 100 µM |  | > 100 µM |  | > 100 µM |  | > 100 µM
8 | COC(=O)C1=C(O)c2cc(OC)c(OC)cc2C(c2ccc(OC)c(OC)c2)C1 (stereo not given) |  | > 100 µM |  | > 100 µM |  | > 100 µM |  | > 100 µM |  | > 100 µM |  | > 100 µM |  | > 100 µM |  | > 100 µM |  | > 100 µM |  | > 100 µM
9 | CC(C)N(C(=O)C12C3C4C5(C#N)C3C1(C#N)C5C42I)C(C)C (stereo not given) |  | > 55.6 µM |  | > 100 µM |  | > 100 µM |  | > 100 µM |  | > 100 µM |  | > 100 µM |  | > 100 µM |  | > 100 µM |  | > 100 µM |  | > 100 µM
10 | CCOC(=O)CCCn1c(SC)nc2[nH]cc(-c3ccccc3)c2c1=O | 1.05 µM | 15 µM | 15.1 µM | 40.1 µM | 24.8 µM | 85.8 µM | 7.62 µM | 41.1 µM | 11 µM | 40.4 µM | 12.9 µM | 25.7 µM | 6.81 µM | 44.8 µM | 12.2 µM | 36.2 µM | 11.2 µM | 25.1 µM | 15.4 µM | 31.6 µM
11 | CC(C)(C)CC(C)(C)c1cc2c(O)c(c1)Cc1cc(C(C)(C)CC(C)(C)C)cc(c1O)Cc1cc(C(C)(C)CC(C)(C)C)cc(c1O)Cc1cc(C(C)(C)CC(C)(C)C)cc(c1O)C2 |  | > 100 µM |  | > 100 µM |  | > 100 µM |  | > 100 µM |  | > 100 µM |  | > 100 µM |  | > 100 µM |  | > 100 µM |  | > 100 µM |  | > 100 µM
12 | CN(C)/C=N/c1nc2c(ncn2C2OC(CO)C(O)C2O)c(=O)[nH]1 (stereo not given) |  | > 100 µM |  | > 100 µM |  | > 100 µM |  | > 100 µM |  | > 100 µM |  | > 100 µM |  | > 100 µM |  | > 100 µM |  | > 100 µM |  | > 100 µM
13 | CCCCCCNC(=O)c1cc(NCc2cc(O)ccc2O)ccc1O | 0.578 µM | 3.41 µM | 4.63 µM | 21.1 µM | 7.69 µM | 25.2 µM | 1.66 µM | 5.03 µM | 30 µM | 91.5 µM | 11.8 µM | 25.4 µM | 5.22 µM | 20.7 µM | 23.5 µM | 71.5 µM | 3.78 µM | 14.7 µM | 11.1 µM | 25.2 µM
14 | S=C1NC2(CCCCCC2)NN1c1ccccc1 |  | 3.64 µM |  | > 100 µM |  | > 100 µM |  | > 100 µM |  | > 22.7 µM |  | > 100 µM |  | > 100 µM |  | > 100 µM |  | > 100 µM |  | > 100 µM
15 | C=COCCCOc1ccccc1 |  | > 100 µM | > 100 µM | > 100 µM |  | > 100 µM | > 100 µM | > 100 µM |  | > 100 µM |  | > 100 µM | > 100 µM | > 100 µM |  | > 100 µM | > 100 µM | > 100 µM |  | > 100 µM
16 | CC(C)CCN1c2nc(Nc3cc(F)c(O)c(F)c3)ncc2N(C)C(=O)C1C (stereo not given) | 2.14 µM | 6.47 µM | 13.4 µM | 44.3 µM | 9.26 µM | > 100 µM | 0.591 µM | 14.9 µM | 6.66 µM | > 100 µM | 2.65 µM | 14 µM | 7.09 µM | 52.9 µM | 4.88 µM | 37.6 µM | 4.75 µM | 23.8 µM | 4.59 µM | 26.1 µM
17 | O=C1c2cccc(NCCCNCCO)c2C(=O)c2cccc(NCCCNCCO)c21 |  | 3.86 µM and 6.02 µM | 0.912 µM and 2.44 µM | 2.58 µM and 6.58 µM |  | 6.24 µM and 9.38 µM |  | 4.08 µM |  | 6.38 µM and 6.71 µM |  | 3.31 µM and 4.4 µM |  | 10.1 µM and 5.84 µM |  | 7.34 µM and 4.62 µM |  | 3.25 µM and 4.33 µM |  | 4.3 µM and 8.78 µM
18 | O=C(Cc1ccc(/C=C/C(=O)c2ncc[nH]2)cc1)Nc1cc(F)c(F)c(F)c1 | 4.28 µM | 11.2 µM | 1.98 µM | > 25 µM | 8.45 µM | > 25 µM | 3.53 µM | 8 µM | 3.71 µM | 8.12 µM | 4.18 µM | 8.19 µM | 3.08 µM | 6.32 µM | 4.13 µM | 17.8 µM | 3.71 µM | 8.91 µM | 4.06 µM | 8.36 µM
19 | CCC[CH2][Sn]1([CH2]CCC)[O]N=C(c2ccccc2)C(c2ccccc2)[O]1 (stereo not given) | 0.263 µM | 1.42 µM | 1.6 µM | 4.1 µM | 1.16 µM | 3.01 µM | 1.54 µM | 2.96 µM | 3.24 µM | 7.93 µM | 1.62 µM | 3.23 µM | 1.45 µM | 2.83 µM | 10.5 µM | 22.3 µM | 1.42 µM | 2.81 µM | 1.63 µM | 3.09 µM
20 | C=C(c1nc2ccc(Cl)cc2[nH]c1=O)C(O)c1ccc(C(O)C(=O)c2nc3ccc(Cl)cc3[nH]c2=O)cc1 (stereo not given) |  | 41.8 µM |  | > 100 µM |  | > 100 µM |  | > 100 µM |  | > 100 µM |  | > 100 µM |  | > 100 µM |  | > 100 µM |  | > 100 µM |  | > 100 µM
21 | COc1ccc2c(c1)CCCC(Br)C2=O (stereo not given) |  | 16.9 µM |  | 27.9 µM |  | 37.2 µM |  | 23.3 µM |  | 33.4 µM |  | 9.22 µM |  | > 30 µM |  | > 43.6 µM |  | 8.88 µM |  | 16.5 µM
22 | COc1cc(C(Cc2ccccc2)NC(C)=O)oc(=O)c1 (stereo not given) |  | > 100 µM |  | > 100 µM |  | > 100 µM |  | > 100 µM |  | > 100 µM |  | > 100 µM |  | > 100 µM |  | > 100 µM |  | > 100 µM |  | > 100 µM
23 | [Cl][Hg][c]1cc(Br)cc(Br)c1 | 1.95 µM | 4.24 µM | 1.24 µM | 3.43 µM | 2.21 µM | 4.78 µM | 1.7 µM | 3.45 µM | 1.83 µM | 3.52 µM | 1.54 µM | 3.04 µM | 1.69 µM | 3.2 µM | 12.9 µM | 30.4 µM | 1.62 µM | 3.42 µM | 2.12 µM | 6.32 µM
24 | S=C(Nc1ccccc1)N(/N=C/C=C/c1ccccc1)c1nnc(-c2ccccc2)c(-c2ccccc2)n1 |  | 52.4 µM |  | > 100 µM |  | > 100 µM |  | 83.8 µM |  | > 100 µM |  | > 100 µM |  | > 100 µM |  | > 100 µM |  | > 100 µM |  | > 100 µM
